Reference: patent publication US5773014A, “Compositions and methods for inhibiting the formation of unwanted skin pigmentation” (priority 1996, dated 1998)
Values after ≈ are worked out from the molar mass of the structure shown.

Tests used:
[1] = tested on: human skin explants; details: 0.55% (w/v), positive control; L-Dopa 0.05M, 15 hours at 37° C.
Description: The anti-tyrosinase activity of the invention was also evaluated using an ex vivo tissue model by exposing human skin explants to the material. […] Oxidation of L-Dopa by tyrosinase produces in the melanocyte an observable black pigment, which can easily be detected by optical microscopy. Tyrosinase activity can be measured by the intensity of the observed coloration.
A positive control and a negative control were also conducted in the same experiment. […] The explants, each exposed to a different test solution, were incubated with L-Dopa (0.05M) for 15 hours at 37° C. After fixation and inclusion in paraffin, the skin slices were colored with hemalun/eosin/safran and cresyl violet, and observed by optical microscopy under white light.

[2] = tested on: cells in a culture; details: reported for other skin whiteners; cited from earlier work
[3] = tested on: tyrosinase; assay: in vitro tyrosinase inhibition (dopachrome formation from L-Dopa, spectrophotometry at 475 nm); type: biochemical
From the text: Tyrosinase catalyzes the formation of L-dopaquinone, and then dopachrome (in the eumelanin pathway), from L-Dopa. […] Comparisons in the rate at which this colored substance appears in the presence of a candidate whitening material indicate the effect of the material on enzymatic activity; complete absence of dopachrome reflects total inhibition of tyrosinase.

[4] = solubility; type: physicochemical; details: read-out: max. solubility

Tyrosinase Inhibition (%) ([3]; concentration 0.1%) | Compound | IC50 (cytotoxicity, kills more than 50% of the cells in a culture) [2] [mg/L] | Tyrosinase Inhibition (%) ([3]; concentration 5%) | Tyrosinase Inhibition (%) ([3]; concentration 1%) | other results
– | Oc1ccc(O)cc1 [hydroquinone] | 5.5 | – | – | formation of melanin in explant melanocytes [1]: completely inhibited the formation of melanin; tyrosinase-inhibiting activity (in words) ([3]; tested at different concentrations (FIG. 1)): exhibits no tyrosinase-inhibiting activity
66 | O=C1O[C@H]([C@@H](O)CO)C(O)=C1O [Ascorbic acid, ascorbic acid] | 880 | – | – | –
– | OC[C@H]1O[C@@H](Oc2ccc(O)cc2)[C@H](O)[C@@H](O)[C@@H]1O [Pure Arbutin, arbutin] | – | 45 | – | solubility [4]: 50 mg/mL (≈ 184 mM); Tyrosinase Inhibition (%) ([3]; concentration 0.2%): 20%; Tyrosinase Inhibition (%) ([3]; concentration 0.5%): 25%; Tyrosinase Inhibition (%) ([3]; concentration 2.5%): 35%
71 | O=c1cc(CO)occ1O [kojic acid] | – | – | 80 | –
– | CCCCC/C=C\C/C=C\CCCCCCCC(=O)O [linoleic acid] | 2.8 | – | – | –

Compound | Tyrosinase Inhibition (%) ([3]; concentration 0.1%) | IC50 (cytotoxicity, kills more than 50% of the cells in a culture) [2] [mg/L] | Tyrosinase Inhibition (%) ([3]; concentration 5%) | Tyrosinase Inhibition (%) ([3]; concentration 1%) | other results
O=C(O)CN(CCN(CC(=O)O)CC(=O)O)CC(=O)O [EDTA, ethylenediaminetetraacetic acid] | 0 | – | 78.9 | 47.3 | –
